# In US9861640B2, “Medicament for treatment of Alzheimer's disease” (KEMPHYS LTD., priority 2013, dated 2018):
# Assays:
# [1] = test system: RA response element (RARE); assay: RARE luciferase reporter gene assay in Neuro2a cells; format: cell-based, mouse; settings: Am80 0.2-5 μM, with or without HX630 5 μM, 24 h
# Method: Since the effective concentration of Am80 in vivo has not been determined, we considered that a relatively high concentration of Am80 should be used in the in vitro study in order to ensure adequate stimulation. […] Moreover, the combination of HX630 (5 μM) with Am80 in the range of 0.2-5 μM also had little effect. Therefore, the concentrations of Am80 and HX630 were both set at 5 μM for the in vitro study.
# Neuro2a cells were seeded in 24-well plates (2×10^5 cells/well) and transfected with 0.2 μg of pGL3-RARE-Luc (#13468; Addgene) or pGL3-Luc vector (Promega) and 0.05 μg of Renilla luciferase vector (phRL-TK) (Promega), using Effectene reagent (Qiagen) according to the manufacturer's protocol. Five hours after transfection, cells were exposed to Am80 (5 μM) and/or HX630 (5 μM) in the medium for 24 h. Luciferase activities were determined in cell lysates. Firefly luciferase activity was normalized to that of Renilla luciferase for each well.
# [2] = test system: Aβ40 and Aβ42; assay: Aβ40 and Aβ42 sandwich ELISA of TBS-soluble and TBS-insoluble brain fractions; format: in vivo, mouse; settings: Am80 alone 3 mg/kg/d or 6 mg/kg/d for 17 days, oral
# Method: (§1) APP23 mice begin forming amyloid deposits when they are 6 months old, but memory deficits in the MWM test appear quite early (before 3 months of age). Here, we used 8.5-month-old male APP23 mice and their WT littermates (C57BL/6J). We used stratified random sampling to divide mice (four to six per cage) into four groups to equalize the mean body weight of the study groups: mice given 0.5 mg/kg/d Am80, those given 5 mg/kg/d HX630, those given the mixture of 0.5 mg/kg/d Am80 and 5 mg/kg/d HX630, and those given the vehicle. […]
# The TBS-soluble (TBS-extractable) fraction and the TBS-insoluble (but guanidine HC1-extractable) fraction from the cerebral hemispheres or hippocampus were prepared as described previously. The amounts of Aβ40 and Aβ42 in each fraction were determined by using sandwich ELISAs (294-64701 and 290-62601 (Wako), respectively), according to the manufacturer's instructions. The amounts of tumor necrosis factor-α (TNF-α) and IL-4 in the TBS-soluble fractions of cerebral cortex and hippocampus were analyzed by means of sandwich ELISAs KMC3012 (Invitrogen) and ELM-IL-4-001 (RayBiotech, Inc., Norcros, Ga., USA), respectively, according to the manufacturer's instructions. Protein concentrations were determined with the Bradford Protein Assay Reagent (Thermo Fisher Scientific Inc., Rockford, Ill., USA), with BSA as the standard.
# [3] = target: RARγ (Homo sapiens, UniProt P13631); settings: [50]; cited from earlier work
# [4] = test system: RXRs; settings: cited from earlier work
# [5] = normal male rats; 2 h after subcutaneous administration at 1 mg/kg; cited from earlier work
# [6] = test system: Cd36 mRNA; assay: RT-PCR of Cd36 mRNA in brains of APP23 mice; format: in vivo, mouse; settings: Am80 0.5 and/or HX630 5 mg/kg/d, day 18
# Method: as §1, with “vehicle. Am80 and HX630 were suspended in 0.5% (w/v) carboxymethylcellulose solution and were orally administered to mice at 0.5 mg/kg (Am80) or 5 mg/kg (HX630) for 17 consecutive days (once daily at 18:00). Control animals received the same volume of 0.5% (w/v) carboxymethylcellulose solution orally, without the other compounds.” for “vehicle.”
# For semi-quantitative RT-PCR analysis, PCRs were carried out with Quick Taq HS DyeMix (DTM-101; Toyobo Co. Ltd., Osaka, Japan). […] Semi-quantitative PCR consisted of an initial denaturation cycle at 94° C. for 2 min, followed by 40 cycles for Cd36, 35 cycles for Mme, 30 cycles for Ide, and 26 cycles for β-actin. […] Densitometric quantification was done with the Image Gauge software program (Fuji Photo Film Co., Tokyo, Japan). […]
# [7] = test system: IL-4; assay: IL-4 sandwich ELISA of hippocampus, correlation with MWM; format: in vivo, mouse; settings: APP23 mice; day 18; P=0.096 (HX630), P=0.087 (Am80/HX630)
# Chain of RARγ (P13631 whole entry, species assumed): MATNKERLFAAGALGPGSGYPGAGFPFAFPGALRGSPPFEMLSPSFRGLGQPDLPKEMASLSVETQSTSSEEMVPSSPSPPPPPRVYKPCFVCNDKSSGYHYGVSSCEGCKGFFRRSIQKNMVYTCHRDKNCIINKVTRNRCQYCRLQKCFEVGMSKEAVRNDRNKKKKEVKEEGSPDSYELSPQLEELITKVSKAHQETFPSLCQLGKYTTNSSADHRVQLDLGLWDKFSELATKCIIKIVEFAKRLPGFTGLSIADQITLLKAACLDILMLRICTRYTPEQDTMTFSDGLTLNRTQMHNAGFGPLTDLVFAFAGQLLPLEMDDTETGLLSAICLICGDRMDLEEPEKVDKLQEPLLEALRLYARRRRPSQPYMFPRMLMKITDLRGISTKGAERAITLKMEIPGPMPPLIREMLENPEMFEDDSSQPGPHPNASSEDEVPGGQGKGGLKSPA
Structure (SMILES),RARE-luciferase activity in Neuro2a cells [1],"Aβ levels in APP23 mice, higher dose [2]",binding to RARγ [3],binding affinity for RXRs (and RARγ) [4],cerebral tissue content of Am80 [5],Cd36 mRNA level [6],hippocampal IL-4 levels [7]
"CC1(C)CCC(C)(C)c2cc(NC(=O)c3ccc(C(=O)O)cc3)ccc21 [Am80, 4-{(5,6,7,8-tetrahydro-5,5,8,8-tetramethyl-2-naphthalenyl)carbamoyl}benzoic acid]",hardly altered,neither reduced Aβ levels,hardly binds,little or no binding affinity,around 100 pmol/g tissue,–,–
"CN1c2ccccc2N=C(c2ccc(C(=O)O)cc2)c2cc3c(cc21)C(C)(C)CCC3(C)C [HX630, 4-[5H-2,3-(2,5dimethyl-2,5-hexano)-5-methyldibenzo[b,e]-diazepin-11-yl]benzoic acid]",–,–,–,–,–,increased,the increase was statistically insignificant
